# In patent US20250205265A1, “ASPERULOSIDE AS AN AGENT FOR IMPROVING VASCULAR AND METABOLIC FUNCTION IN OBESITY: ROLE OF NRF2 ACTIVATION” (The Chinese University of Hong Kong, priority 2023, published 2025):
# “Also recorded” adds a separate entry of the source.
# Experiments:
# [1] = tested on: Cpt1α, Cpt1β, mitochondrial complex, Pgc1α; experiment: Real-time PCR of mitochondrial genes in obese mice livers; assay type: in vivo
# Description: (§1) After induction of obesity in C57BL/6 male mice fed with the high-fat diet for twelve weeks, they were treated daily with ASP (50 mg/kg) via oral gavage for seven weeks in vivo study. C57BL/6 mice aortae were used for ex vivo studies. Endothelial cells, HepG2 and primary adipocytes were used for in vitro studies. Vascular function was determined by wire myograph. H&E staining was employed for histological examination. Oil Red O staining was used to determine lipid droplets in tissues and cells. DHE and MitoSOX staining were used to detect ROS levels. QPCR, aortic en-face immunofluorescence staining, and Western blotting were used to analyze mRNA and protein expressions. ARE binding activity was determined by Dual luciferase reporter assay. Small interfering (si)RNA of Nrf2 and HO-1, inhibitors of Nrf2 (ML385, Cat. No.: HY-100523) and HO-1 (OB-24, HY-118487) were used to elucidate the mechanistic pathway of ASP's action.
# HO-1 = experiment: Real-time PCR of HO-1 in obese mice aortas; assay type: in vivo
# Description: (§2) After induction of obesity in C57BL/6 male mice fed with high fat diet for twelve weeks, they were treated daily with ASP (50 mg/kg) via oral gavage for seven weeks in vivo study. C57BL/6 mice aortae were used for ex vivo study and endothelial cells were used for in vitro study. Vascular function was determined by wire myograph. DHE and MitoSOX staining were used to detect ROS levels. QPCR, aortic en-face immunofluorescence staining, and Western blotting were used to analyze mRNA and protein expressions. Small interfering (si)RNA of Nrf2 and HO-1, inhibitors of Nrf2 (ML385, Cat. No.: HY-100523) and HO-1 (OB-24, HY-118487) were used to elucidate the mechanistic pathway of ASP's action.
# as §1, with “QPCR, aortic en-face immunofluorescence staining, and Western blotting were used to analyze mRNA and protein expressions.” left out, “Small interfering (si)RNA of Nrf2 and HO-1, inhibitors of Nrf2 (ML385, Cat. No.: HY-100523) and HO-1 (OB-24, HY-118487) were used to elucidate the mechanistic pathway of ASP's action.” left out
# HepG2 cells [2] = experiment: DHE staining of palmitic acid-treated HepG2 cells; assay type: cell-based; conditions: Nrf2-inhibited HepG2 cells
# Description: as §1
# FAS, ACC2, SREBP1C, HSL = experiment: Real-time PCR of lipid metabolism genes in PA-treated HepG2 cells; assay type: cell-based
# Description: as §1
# HepG2 cells [3] = experiment: Oil Red O staining of PA-treated HepG2 cells; assay type: cell-based; conditions: Nrf2-inhibited HepG2 cells
# Description: as §1
# [4] = tested on: adipose tissues of obese mice; experiment: Real-time PCR of adipose tissues of obese mice; assay type: in vivo
# Description: as §1
# Nrf2 = Nrf2 nuclear translocation in endothelial cells; assay type: cell-based
# Description: as §2, §1
# [5] = tested on: Nrf2/antioxidant responsive element (ARE); experiment: ARE binding activity, luciferase reporter assay in endothelial cells; assay type: cell-based; conditions: for endothelial Nrf2/ARE binding, higher than the binding to impaired endothelial cells: worded as embodiment, cf. FIG. 3D
# Description: as §1
# ICAM-1 = experiment: Real-time PCR of ICAM-1 in aortas of obese mice; assay type: in vivo
# Description: as §2
# as §1, with “QPCR, aortic en-face immunofluorescence staining, and Western blotting were used to analyze mRNA and protein expressions.” left out, “Small interfering (si)RNA of Nrf2 and HO-1, inhibitors of Nrf2 (ML385, Cat. No.: HY-100523) and HO-1 (OB-24, HY-118487) were used to elucidate the mechanistic pathway of ASP's action.” left out
# ROS = experiment: Ex vivo DHE staining of ROS in IL-1β-treated aortas; design: species or system mice
# Description: as §2, §1
# [6] = obese mice aortae, ASP 50 mg/kg oral gavage daily for seven weeks
# [7] = perirenal adipose tissues in obese mice
# [8] = visceral adipose tissues in obese mice
substance,measurement,setting,value
Asperuloside,"mRNA expressions of Cpt1α, Cpt1β, mitochondrial complex, and Pgc1α",[1],reverses these impairments
same,increase of HO-1 expression,HO-1; [6],about 1.5 fold
same,HO-1 mRNA expression level,"HO-1; obese mice aortas, real-time PCR",increases mRNA expression level of Nrf2 (FIG. 1G) and HO-1
same,palmitic acid-induced oxidative stress (DHE staining),HepG2 cells [2],fails to attenuate palmitic acid-induced oxidative stress
same,"mRNA levels of FAS, ACC2 and SREBP1C","FAS, ACC2, SREBP1C, HSL; Nrf2-inhibited HepG2 cells",fails to decrease its expression levels
same,"PA-stimulated overexpression of mRNA levels of FAS, ACC2 and SREBP1C","FAS, ACC2, SREBP1C, HSL; PA-treated HepG2 cells",inhibited by ASP treatment
same,HSL mRNA expression,"FAS, ACC2, SREBP1C, HSL; palmitic acid, Nrf2-inhibited HepG2 cells",fails to restore palmitic acid-decreased HSL mRNA expression
same,PA-induced lipid accumulation (Oil Red O),HepG2 cells [3],fails to alleviate PA-induced lipid accumulation
same,Cd36 upregulation,[4]; perirenal adipose tissues,inhibited Cd36 upregulation
same,Acox1 expression,[4]; [7],increased
same,Nprc expression,[4]; [7],downregulates Nprc expression
same,mRNA expression levels of Srebp1 and Acc2,[4]; [7],decreases mRNA expression levels of Srebp1 (FIG. 15A) and Acc2
same,expression levels of Il-6 and Il-1β,[4]; perirenal adipose tissues of obese mice,reverses enhanced expression levels of Il-6 (FIG. 16A) and Il-1β
same,Cd36 upregulation,[4]; subcutaneous adipose tissues,inhibited Cd36 upregulation
same,Hsl expression,[4]; subcutaneous adipose tissues in obese mice,upregulates Hsl expression
same,expression of F4/80,[4]; subcutaneous adipose tissues of obese mice,reverses the elevated expression of F4/80
same,Nprc expression,[4]; [8],decreased Nprc expression
same,Tnfα expression,[4]; [8],decreases Tnfα expression
same,"upregulation of Cd11c, Cd11b, and F4/80",[4]; visceral adipose tissues of obese mice,"suppresses the upregulation of Cd11c (FIG. 20A), Cd11b (FIG. 20B), and F4/80"
same,Nrf2 nuclear expression (western blotting),"Nrf2; 40 μmol/L ASP, endothelial cells under basal conditions",increases Nrf2 nuclear expressions
same,Nrf2 nuclear translocation (western blotting),Nrf2; endothelial cells,dose-dependently stimulates Nrf2 nuclear translocation; also recorded: increased nuclear Nrf2
same,"endothelial Nrf2/ARE binding, higher than the binding to impaired endothelial cells",[5]; 10 μm ASP,about 50%
same,"endothelial Nrf2/ARE binding, higher than the binding to impaired endothelial cells",[5]; 20 μm ASP,~60%
same,"endothelial Nrf2/ARE binding, higher than the binding to impaired endothelial cells",[5]; 40 μm ASP,~70%
same,ARE binding activity,[5]; luciferase reporter assay,increased ARE binding activity
same,ICAM-1 mRNA expression,"ICAM-1; aortas of obese mice, real-time PCR",decreases elevated expression of VCAM-1 and ICAM-1 mRNA
same,reduction of ICAM-1 expression,ICAM-1; [6],about 2 fold
same,ROS generation,"ROS; IL-1β, HO-1-inhibited aortas",fails to rescue the impairment (FIG. 2C) or decrease ROS generation
same,IL-1β-induced ROS overproduction,ROS; ML385-treated aortas,fails to reverse impairment (FIG. 4E) or suppress IL-1β-induced ROS overproduction
same,IL-1β-induced ROS overexpression (DHE staining),ROS; endothelial Nrf2 knocked down,fails to suppress IL-1β-induced ROS overexpression
